Experimental data as given in PubChem BioAssay AID1259407 (Chemical Carcinogenesis Research Information System (CCRIS), 2018).
Activity calls are given as the source filed them. The rule behind the calls is not given here.

Tested on: CCRIS mutagenicity, Ames/micronucleus/aberration tests
Test: CCRIS mutagenicity studies
[1] = Test System: AMES SALMONELLA TYPHIMURIUM, Strain/Indicator: TA98, Metabolic Activation: NONE, Method: PREINCUBATION
[2] = Test System: AMES SALMONELLA TYPHIMURIUM, Strain/Indicator: TA100, Metabolic Activation: NONE, Method: PREINCUBATION

c1ccc2c(c1)C1CCCCC1[C@@H]1O[C@@H]21 (some centres not stated)
mutagenic call (Test System: AMES SALMONELLA TYPHIMURIUM, Strain/Indicator: TA98, Metabolic Activation: NONE, Method: STANDARD PLATE): inactive; negative
mutagenic call (Test System: AMES SALMONELLA TYPHIMURIUM, Strain/Indicator: TA100, Metabolic Activation: NONE, Method: STANDARD PLATE): inactive; negative

CCN1CCNC(=O)C1=O
mutagenic call [1]: inactive; negative
mutagenic call (Test System: AMES SALMONELLA TYPHIMURIUM, Strain/Indicator: TA98, Metabolic Activation: RAT LIVER S-9, PHENOBARBITAL AND BETA-NAPHTHOFLAVONE, Method: PREINCUBATION): inactive; negative
mutagenic call [2]: inactive; negative
mutagenic call (Test System: AMES SALMONELLA TYPHIMURIUM, Strain/Indicator: TA100, Metabolic Activation: RAT LIVER S-9, PHENOBARBITAL AND BETA-NAPHTHOFLAVONE, Method: PREINCUBATION): inactive; negative
mutagenic call (Test System: AMES SALMONELLA TYPHIMURIUM, Strain/Indicator: TA1535, Metabolic Activation: NONE, Method: PREINCUBATION): inactive; negative
mutagenic call (Test System: AMES SALMONELLA TYPHIMURIUM, Strain/Indicator: TA1535, Metabolic Activation: RAT LIVER S-9, PHENOBARBITAL AND BETA-NAPHTHOFLAVONE, Method: PREINCUBATION): inactive; negative
mutagenic call (Test System: AMES SALMONELLA TYPHIMURIUM, Strain/Indicator: TA1537, Metabolic Activation: NONE, Method: PREINCUBATION): inactive; negative
mutagenic call (Test System: AMES SALMONELLA TYPHIMURIUM, Strain/Indicator: TA1537, Metabolic Activation: RAT LIVER S-9, PHENOBARBITAL AND BETA-NAPHTHOFLAVONE, Method: PREINCUBATION): inactive; negative
mutagenic call (Test System: AMES SALMONELLA TYPHIMURIUM, Strain/Indicator: TA1538, Metabolic Activation: NONE, Method: PREINCUBATION): inactive; negative
mutagenic call (Test System: AMES SALMONELLA TYPHIMURIUM, Strain/Indicator: TA1538, Metabolic Activation: RAT LIVER S-9, PHENOBARBITAL AND BETA-NAPHTHOFLAVONE, Method: PREINCUBATION): inactive; negative
mutagenic call (Test System: E.COLI, Strain/Indicator: WP2UVRA, Metabolic Activation: NONE, Method: PREINCUBATION): inactive; negative
mutagenic call (Test System: E.COLI, Strain/Indicator: WP2UVRA, Metabolic Activation: RAT LIVER S-9, PHENOBARBITAL AND BETA-NAPHTHOFLAVONE, Method: PREINCUBATION): inactive; negative

O=C(Cc1ccccc1)NC(Cc1ccc(Cl)cc1)C(=O)O (configuration not stated)
mutagenic call (Test System: AMES SALMONELLA TYPHIMURIUM, Strain/Indicator: TA98, Metabolic Activation: NONE): inactive; negative
mutagenic call (Test System: AMES SALMONELLA TYPHIMURIUM, Strain/Indicator: TA100, Metabolic Activation: NONE): active; positive
mutagenic call (Test System: AMES SALMONELLA TYPHIMURIUM, Strain/Indicator: TA1535, Metabolic Activation: NONE): inactive; negative
mutagenic call (Test System: AMES SALMONELLA TYPHIMURIUM, Strain/Indicator: TA1537, Metabolic Activation: NONE): inactive; negative
mutagenic call (Test System: E. COLI, Strain/Indicator: AB2462 UVRA, Metabolic Activation: NONE, Method: SPOT TEST): inactive; negative

c1cnc2cnncc2c1
mutagenic call [1]: inactive; negative
mutagenic call (Test System: AMES SALMONELLA TYPHIMURIUM, Strain/Indicator: TA98, Metabolic Activation: RAT, LIVER, S-9, PCB, Method: PREINCUBATION): inactive; negative
mutagenic call [2]: inactive; negative
mutagenic call (Test System: AMES SALMONELLA TYPHIMURIUM, Strain/Indicator: TA100, Metabolic Activation: RAT, LIVER, S-9, PCB, Method: PREINCUBATION): inactive; negative

NNc1ccc([N+](=O)[O-])cc1
mutagenic call [1]: active; positive
mutagenic call (Test System: AMES SALMONELLA TYPHIMURIUM, Strain/Indicator: TA98, Metabolic Activation: RAT, LIVER, S-9, KANECHLOR 500, Method: PREINCUBATION): active; positive
mutagenic call [2]: active; positive
mutagenic call (Test System: AMES SALMONELLA TYPHIMURIUM, Strain/Indicator: TA100, Metabolic Activation: RAT, LIVER, S-9, KANECHLOR 500, Method: PREINCUBATION): active; positive
